According to US7618953B2, “Amorphous forms of risedronate monosodium” (Zentiva, a.s., priority 2004, dated 2009):
Structures can show the parent of a compound that is named as a salt.

What was measured:
[1] = type: physicochemical; settings: for time until a transparent solution was formed: 0.796 mmol in 100 ml stirred aqueous hydrochloric acid, pH 1.1, 40° C.
Experimental: Dissolution of Sodium Risedronate in Diluted Hydrochloric Acid
a) 0.273 g (0.796 mmol) of sodium risedronate pentahemihydrate (crystalline form A) according to WO 01/56983, having the water content 12.5%, was introduced into 100 ml of stirred aqueous solution of hydrochloric acid at pH 1.1 and temperature of 40° C. Within 30 seconds a transparent solution was formed.
b) 0.250 g (0,796 mmol) of semi-crystalline sodium risedronate according to Example 2 above, having the water content 3%, was introduced into 100 ml of stirred aqueous solution of hydrochloric acid at pH 1.1 and temperature of 40° C. Within less than 30 seconds a quite transparent solution was formed.

[2] = Water content after storage on the open air; type: physicochemical; settings: after one month storage on the open air at laboratory temperature; 1.7% of water when prepared
Experimental: 10 g of crystalline form of risedronate pentahydrate (according to WO 2004/037252) was dried at 110° C. for 20 hours. 8.2 g of the semi-crystalline form of risedronate sodium was obtained, which was characterized with X-ray powder diffraction (FIG. 9), ^13C and ^31P Cp MAS NMR spectra (FIGS. 7 and 8) and IR spectra (FIG. 6). Thus prepared semi-crystalline risedronate contained 1.7% of water. After one month storage on the open air at laboratory temperature the content of water increased to 3%.

[3] = 0.200 g suspended in 2 ml water at 22° C., water added dropwise at 0.2 ml/min until transparent solution
[4] = physchem; settings: 22 °C, water, thermodynamic from solid

Structure (SMILES)	time until a transparent solution was formed [1]	precipitation on further stirring under constant conditions ([1]; aqueous hydrochloric acid pH 1.1, 40° C., stirred for further 15 mins)	content of water after storage [2]	total consumption of water for dissolution of the sample [3]	solubility [4]	time after formation of the transparent solution until a white suspension of poorly soluble risedronic acid started to precipitate ([1]; pH 1.1)
O=P(O)(O)C(O)(Cc1cccnc1)P(=O)(O)O [Example 2, monosodium salt of 3-pyridyl-1-hydroxyethylidene-1,1-bisphosphonic acid]	less than 30 seconds	without any observable precipitation	3%	2.5 mL	255 mM	
O.O.O.O.O.O=P([O-])(O)C(O)(Cc1cccnc1)P(=O)(O)O.O=P([O-])(O)C(O)(Cc1cccnc1)P(=O)(O)O.[Na+].[Na+] [sodium risedronate pentahemihydrate, reference compound]	≤ 30 s			3.5 mL		≤ 20 s
